This is an account of results in patent US20250241863A1, “COMPOSITIONS AND METHODS FOR TARGETED DELIVERY OF THERAPEUTIC AND/OR DIAGNOSTIC SPECIES” (THE PENN STATE RESEARCH FOUNDATION, priority 2017, published 2025).

{FAM} = fluorescein (FAM) label; {NH2} = amine modification

A short description of data set [1]: activation temperature of the retro Diels-Alder reaction of the linker groups (FIG. 7). It is filed as physicochemical. Particulars: linker group in FIG. 7. An excerpt:
(§1) For different Diels-Alder cyclo-addition products, the retro (or reverse) Diels-Alder reaction will occur or be initiated at different temperatures (i.e., different activation temperatures). Thus, by varying the Diels-Alder cyclo-addition product in the linker group, breaking up or cleaving of the Diels-Alder cyclo-addition product (and concomitant decoupling of the therapeutic species and the nanoparticle) can be “tuned” to occur at different temperatures.

Data set [2] can be described thus: temperature dependency of retro Diels-Alder reaction (release of fluorescent si-RNA) for linker connected to a nanoparticle (FIGS. 10, 11). It is filed as physicochemical. Particulars: for cleavage of the linker: linker connected to a nanoparticle.
Excerpt: as §1
Specifically, to conjugate a FAM-tagged RFP antisense siRNA mimic, an EDC coupling protocol was used with […] of an aqueous EDC/NHS (100 mM) stock solution added to each of the three resuspended nanoparticle aliquots prepared in Example 3, followed by […] of the amine-terminated siRNA (4 mM), After 24 h, the particles were again centrifuged, washed, and resuspended in DI water. A control sample in which cysteamine modified SNPs were linked to the 6-maleimidohexanoic acid via EDC coupling was also prepared, similarly to the pyrrole-based reaction described above, but without addition of the diene, to test the stability of both the amide and thiol linkages. Conjugation of the linkers and siRNA was tested by chemically reducing the Ag-linker bond using TCEP reagent (tris(2-carboxyethyl)phosphine hydrochloride) and measuring FAM intensity of the supernatant.
The products of these reactions (pyrrole, furan, and thiophene-based) were analyzed. For example, the temperature dependency of the retro Diels Alder reaction (and release of the fluorescent si-RNA) was evaluated. […] The fluorescence intensity of the treated sample is assumed to indicate maximum release (due to cleavage/retro (or reverse) Diels Alder reaction).

The next data set deals with PAM2 skin cancer cells. In words: anti-cancer effects of released miRN-148b in PAM2 cells (FIG. 23). Type of data set: cell-based. As to conditions: PAM2 cells transfected, 7 days after transfection (positive control). The protocol:
(§2) The anti-cancer effects towards PAM2 skin cancer cells of miRN-148b released from compositions described herein were explored using a furan-based linker conjugated with a FAM-tagged miRN-148b and an SNP. The furan-based linker composition was prepared according to Examples 1-5. SNPs surface-modified with miRNA mimics via Diels-Alder linkage, were sterilized in 70/30% ethanol and water solution prior to washing and resuspension in RNAse-free water. Subsequently, appropriate nanoparticle solution volumes were added, based on required dosages, to the adherent monolayer PAM2 cells at optimal seeding densities, immersed in appropriate cell culture media. Transfection was allowed to occur at 37° C. for 24 h.
FIG. 23A is a negative control showing fluorescence of the PAM2 cells in the presence of silver nanoparticles prepared in accordance with Example 1 after 7 days. FIG. 23B is a positive control showing PAM2 cells transfected with FAM-tagged miRN-148b 7 days after transfection.

The test system of data set [3] is Ras-induced keratinocyte lung cancer cells. Briefly: anti-cancer effects of released miRN-148b in Ras-induced keratinocyte cells (FIG. 24). It is filed as cell-based. As to conditions: keratinocyte cells transfected with 100 nM, after 7 days. The protocol:
as §2, with “Ras-induced keratinocyte lung” for “PAM2 skin”
FIG. 24A is a negative control of keratinocyte cells in the absence of the composition and FAM-tagged miRN-148b after 7 days. FIG. 24B is a positive control of keratinocyte cells after 7 days, which have been transfected with FAM-tagged miRN-148b (100 nM).

Turning to `O=C(O)CCCCCN1C(=O)C2C3C=CC(C(=O)O)(N3)C2C1=O` (centres unmarked) [pyrrole-based linker group], in data set [1], the “activation temperature of the retro Diels-Alder reaction” value (“activation temperature” below) came to 40 °C.
For `O=C(O)CCCCCN1C(=O)C2C3C=CC(CS)(S3)C2C1=O` (centres unmarked) [thiophene-based linker group], the “activation temperature” value in data set [1] was “around 80 °C”. For the same compound, in data set [2] (after 2 hours of heating at 37° C., 60° C., and 80° C.), the “cleavage of the linker” value was “not observed until 80 °C”.
For the compound “FAM-tagged miRN-148b: 3′amine/5′-FAM modified single stranded siRNA, sequence UUGGAGCCGUACUGGAACUUG (5' {FAM}, 3' {NH2}, sugars by position and backbone not given here)”, the “cell proliferation and growth” value in the data set with PAM2 skin cancer cells is “reduced cell proliferation and growth”. In data set [3], the cell growth result was “normal cell behavior”.
Regarding `O=C(O)CCCCCN1C(=O)C2C3C=CC(CS)(O3)C2C1=O` (centres unmarked) [furan-based linker group], in data set [1], the “activation temperature” value is 60 °C. For the same compound, in data set [2] (FIGS. 10 and 11), the “speed of cleavage of the linker compared with the thiophene-based linker” value was “faster at lower temperatures”. Besides, in data set [2] (after 1 hour of heating, at 60° C.), the “cleavage of the linker” value is listed as 25%.
